In patent US20260274798A1, “PENTAMIDINE ANALOGUE POLYMORPHS, FORMULATIONS, AND METHODS THEREOF” (AURANSA INC., priority 2023, published 2026):
“Also recorded” adds a separate entry of the source. Blank lines part the entries; values can stand above or below the compound they belong to.

How the values were obtained:
Type in all cases: physicochemical
[1] = Thermodynamic solubility in water and a pH 7.4 phosphate buffer; conditions: slurry agitated at ambient ca. 24 hours, HPLC; for solubility: diacetate; for solubility at 24 h: thermodynamic from solid
Description: (§1) 25.6 mL of 2-propanol was added to the lyophilized Compound A diacetate salt to form a slurry. The slurry was then temperature cycled between ambient and 40° C. in 4 hour cycles with agitation for ca. 24 hours. The slurry was then filtered and the isolated solids collected into a scintillation vial. A subsample was analyzed by XRPD and the vial was left uncapped to allow the solids to […] at ambient for ca. 24 hours. The material was then re-analyzed by XRPD post-drying and fully characterized using the following techniques: TG/DSC, DSC, DVS with post-DVS XRPD analysis, PLM, FT-IR, ^1H NMR, Purity by HPLC, TG/DSC with post TG/DSC XRPD analysis, and 7 Day Stability Assessment (ca. 10 mg of the material was stored at 40° C./75% RH. 80° C. and ambient light and humidity for 1 week. The solids were then analyzed by XRPD and purity obtained by HPLC). Thermodynamic solubility in water and a pH 7.4 phosphate buffer (The appropriate media was added in 100 μL aliquots to ca. 20 mg of the material to form a slurry. The samples were then sealed and agitated at ambient for ca. 24 hours before being centrifuge filtered. The isolated solids were analyzed by XRPD and the concentration of the mother liquors determined by HPLC).
The material appears highly insoluble in the phosphate buffer with all Forms having a solubility of 0.3 mg/mL except from Form 2 which has a solubility of 0.2 mg/mL.

[2] = Dynamic vapour sorption (DVS) with post-DVS XRPD; conditions: for form of recovered solid by post-DVS XRPD: after DVS cycles; for form conversion during DVS / weight loss on form conversion during DVS: at 50% RH
Description: Approximately, 10-20 mg of sample was placed into a mesh vapour sorption balance pan and loaded into a DVS Intrinsic dynamic vapour sorption balance by Surface Measurement Systems. The sample was subjected to a ramping profile from 40-90% relative humidity (RH) at 10% increments, maintaining the sample at each step until a stable weight had been achieved (dm/dt 0.004%, minimum step length 30 minutes, maximum step length 500 minutes) at 25° C. After completion of the sorption cycle, the sample was dried using the same procedure to 0% RH and then a second sorption cycle back to 40% RH. Two cycles were performed. The weight change during the sorption/desorption cycles were plotted, allowing for the hygroscopic nature of the sample to be determined. XRPD analysis was then carried out on any solid retained.

[3] = 7 Day Stability Assessment (XRPD form and HPLC purity after storage); conditions: diacetate; for one-week stability: form by XRPD: 1 week (Form 1: 2 and 7 days)
Description: as §1

[4] = Approximate solvent solubility screen of Compound A diacetate salt in 18 solvent systems; conditions: thermodynamic from solid
Description: Approximately 380 mg of Form 1 was dissolved in 35 mL of methanol and rotary evaporated. […] A sub-sample was taken for further characterization (TG/DSC, ^1H NMR and PLM). The crystalline material isolated post rotary-evaporation was re-dissolved in 27 mL of water. The solution remained slightly turbid so was syringe filtered to give a clear solution which was split equally among 18 vials to give approximately 20 mg of material per vial. The samples were then frozen at −50° C. before being lyophilized for ca. 72 hours. […] This material was used as input for the solvent solubility screen described below.
The solubility of Compound A diacetate salt was tested in 18 solvent systems. The appropriate solvent was added in 100 μL aliquots to approximately 20 mg of the lyophilized Compound A diacetate salt. Between each addition, the mixture was checked for dissolution and where no dissolution was apparent, the mixture was heated to ca. 40° C. and checked again. This procedure was continued until dissolution was observed or until 100 volumes of solvent had been added.
The solids were then isolated via centrifugal filtration and analyzed by XRPD. If the samples fully dissolved on addition of solvent (methanol and water only), they were uncapped and left to evaporate at ambient. Any solids recovered post-evaporation were then analyzed by XRPD.

[5] = Competitive slurry experiments of Forms 1, 3, 8 and 9
Description: Approximately 5 mg of Compound A diacetate salt Forms 1, 3, 8 and 9 were combined into 8×4 mL vials. The appropriate solvent was added to form a slurry and the samples were shaken at ambient or 60° C. for ca. 48 hours. The samples were then removed from shaking and centrifuge filtered. […] The solids were recovered from the XRPD plate and placed back on to shake as before for an additional 3 days before being re-analyzed by XRPD. […]

[6] = ambient temperature and humidity
[7] = Ethyl Acetate, 2000 μL, Ambient

XRPD Pattern (2 Days) ([5]; Acetone, 1000 μL, 60° C.): All patterns
XRPD Pattern (5 Days) ([5]; Acetone, 1000 μL, 60° C.): All patterns
XRPD Pattern (2 Days) ([5]; Acetone, 2000 μL, Ambient): All patterns
XRPD Pattern (5 Days) ([5]; Acetone, 2000 μL, Ambient): All patterns
XRPD Pattern (2 Days) ([5]; DCM, 1000 μL, 60° C.): All patterns
XRPD Pattern (5 Days) ([5]; DCM, 1000 μL, 60° C.): All patterns
XRPD Pattern (2 Days) ([5]; DCM, 2000 μL, Ambient): All patterns
XRPD Pattern (5 Days) ([5]; DCM, 2000 μL, Ambient): All patterns
XRPD Pattern (2 Days) ([5]; Ethanol, 1000 μL, 60° C.): 8 + 1
XRPD Pattern (2 Days) ([5]; Ethanol, 2000 μL, Ambient): 8 + 1
XRPD Pattern (5 Days) ([5]; Ethanol, 2000 μL, Ambient): 6
XRPD Pattern (2 Days) [5, 7]: All patterns
XRPD Pattern (5 Days) [5, 7]: All patterns
XRPD Pattern (2 Days) ([5]; Etyl Acetate, 1000 μL, 60° C.): All patterns
XRPD Pattern (5 Days) ([5]; Etyl Acetate, 1000 μL, 60° C.): 1 + 8
SMILES: CC(=O)O.CC(=O)O.N=C(N)c1ccc(OCCCCCOc2ccc(C(=N)N)nc2)cc1

solubility at 24 h ([1]; phosphate buffer, pH 7.4, aqueous buffer, pH 7.4 Phosphate Buffer): 200 µg/mL
SMILES: CC(=O)O.CC(=O)O.N=C(N)c1ccc(OCCCCCOc2ccc(C(=N)N)nc2)cc1 [Form 2, 5-((5-(4-carbamimidoylphenoxy)pentyl)oxy)picolinimidamide diacetate]

solubility ([1]; pH 7.4 Phosphate Buffer): 300 µg/mL
solubility at 24 h ([1]; water): 49500 µg/mL
hygroscopicity by DVS ([2]; DVS, 25° C., diacetate): slightly hygroscopic
DVS: form post-DVS ([2]; XRPD post-DVS): water) at 90% RH. No change
DVS ([2]; hygroscopicity / form change during DVS cycle, diacetate): Slightly hygroscopic
one-week stability: form by XRPD ([3]; 40° C./75% RH): no change in form
one-week stability: form by XRPD ([3]; 80° C.): no change in form
one-week stability: form by XRPD [3, 6]: no change in form
1 Week Stability ([3]; form by XRPD after storage at 40° C./75% RH, ambient or 80° C.): No change in form by XRPD
SMILES: CC(=O)O.CC(=O)O.N=C(N)c1ccc(OCCCCCOc2ccc(C(=N)N)nc2)cc1 [Form 1, 5-((5-(4-carbamimidoylphenoxy)pentyl)oxy)picolinimidamide diacetate]
form of recovered solid by post-DVS XRPD ([2]; 25° C., diacetate): remained as the received pattern 1; also recorded: No change in form

Continued, compound first:

SMILES: CC(=O)O.CC(=O)O.N=C(N)c1ccc(OCCCCCOc2ccc(C(=N)N)nc2)cc1 [Form 8, 5-((5-(4-carbamimidoylphenoxy)pentyl)oxy)picolinimidamide diacetate]
solubility ([1]; Water): 38700 µg/mL
solubility ([1]; pH 7.4 Phosphate Buffer): 300 µg/mL
form of recovered solid by post-DVS XRPD ([2]; 25° C., diacetate): conversion of Form 8 to Form 1
form conversion during DVS ([2]; 25° C., diacetate): desolvate and convert to Form 1
weight loss on form conversion during DVS ([2]; 25° C., diacetate): 8.2 wt. %
DVS mass increase ([2]; at 90% RH, diacetate): hygroscopic with a 1.6% mass
one-week stability: form by XRPD ([3]; 40° C./75% RH): convert to Form 1
one-week stability: form by XRPD ([3]; 80° C.): no change in form
one-week stability: form by XRPD [3, 6]: convert to Form 1; also recorded: partial conversion to Form 1

SMILES: CC(=O)O.CC(=O)O.N=C(N)c1ccc(OCCCCCOc2ccc(C(=N)N)nc2)cc1 [Compound A diacetate salt, 5-((5-(4-carbamimidoylphenoxy)pentyl)oxy)picolinimidamide diacetate]
solubility ([4]; all solvents investigated except methanol and water, organic solvent or mixture, read-out: solubility): < 5000 µg/mL
solubility ([4]; organic solvent or mixture, 1,4-Dioxane, lyophilized material, ambient to ca. 40° C., read-out: Approximate Solvent Solubility): ≤ 5000 µg/mL
solubility ([4]; organic solvent or mixture, 2-Propanol, lyophilized material, ambient to ca. 40° C., read-out: Approximate Solvent Solubility): ≤ 5000 µg/mL
solubility ([4]; organic solvent or mixture, 2-methyl THF, lyophilized material, ambient to ca. 40° C., read-out: Approximate Solvent Solubility): ≤ 5000 µg/mL
solubility ([4]; organic solvent or mixture, Acetone, lyophilized material, ambient to ca. 40° C., read-out: Approximate Solvent Solubility): ≤ 5000 µg/mL
solubility ([4]; organic solvent or mixture, Acetonitrile, lyophilized material, ambient to ca. 40° C., read-out: Approximate Solvent Solubility): ≤ 5000 µg/mL
solubility ([4]; organic solvent or mixture, Dichloromethane, lyophilized material, ambient to ca. 40° C., read-out: Approximate Solvent Solubility): ≤ 5000 µg/mL
solubility ([4]; organic solvent or mixture, Dimethylsulfoxide, lyophilized material, ambient to ca. 40° C., read-out: Approximate Solvent Solubility): ≤ 5000 µg/mL
solubility ([4]; organic solvent or mixture, Ethanol, lyophilized material, ambient to ca. 40° C., read-out: Approximate Solvent Solubility): ≤ 5000 µg/mL
solubility ([4]; organic solvent or mixture, Ethyl Acetate, lyophilized material, ambient to ca. 40° C., read-out: Approximate Solvent Solubility): ≤ 5000 µg/mL
solubility ([4]; organic solvent or mixture, Isopropyl Acetate, lyophilized material, ambient to ca. 40° C., read-out: Approximate Solvent Solubility): ≤ 5000 µg/mL
solubility ([4]; organic solvent or mixture, Methanol, lyophilized material, ambient to ca. 40° C., read-out: Approximate Solvent Solubility): 20000 µg/mL
solubility ([4]; organic solvent or mixture, Methylethyl Ketone, lyophilized material, ambient to ca. 40° C., read-out: Approximate Solvent Solubility): ≤ 5000 µg/mL
solubility ([4]; organic solvent or mixture, N,N′-Dimethylacetamide, lyophilized material, ambient to ca. 40° C., read-out: Approximate Solvent Solubility): ≤ 5000 µg/mL
solubility ([4]; organic solvent or mixture, N,N′-Dimethylformamide, lyophilized material, ambient to ca. 40° C., read-out: Approximate Solvent Solubility): ≤ 5000 µg/mL
solubility ([4]; organic solvent or mixture, N-Methylpyrrolidone, lyophilized material, ambient to ca. 40° C., read-out: Approximate Solvent Solubility): ≤ 5000 µg/mL
solubility ([4]; organic solvent or mixture, Tetrahydrofuran, lyophilized material, ambient to ca. 40° C., read-out: Approximate Solvent Solubility): ≤ 5000 µg/mL
solubility ([4]; organic solvent or mixture, Toluene, lyophilized material, ambient to ca. 40° C., read-out: Approximate Solvent Solubility): ≤ 5000 µg/mL
solubility ([4]; Water, lyophilized material, ambient to ca. 40° C., read-out: Approximate Solvent Solubility): 50000 µg/mL

SMILES: CC(=O)O.CC(=O)O.N=C(N)c1ccc(OCCCCCOc2ccc(C(=N)N)nc2)cc1 [Form 3, 5-((5-(4-carbamimidoylphenoxy)pentyl)oxy)picolinimidamide diacetate]
solubility ([1]; Water): 38500 µg/mL
solubility ([1]; pH 7.4 Phosphate Buffer): 200 µg/mL
form of recovered solid by post-DVS XRPD ([2]; 25° C., diacetate): conversion to Form 9
form conversion during DVS ([2]; 25° C., diacetate): convert to the hydrated Form 9; also recorded: convert to Form 9 (dihydrate)
weight loss on form conversion during DVS ([2]; 25° C., diacetate): approximately 4 wt. %
one-week stability: form by XRPD ([3]; 40° C./75% RH): convert to Form 1
one-week stability: form by XRPD ([3]; 80° C.): no change
one-week stability: form by XRPD [3, 6]: convert to Form 1
